{"source": "patent US20160215348A1", "about": "“GENE EXPRESSION BIOMARKERS AND THEIR USE FOR DIAGNOSTIC AND PROGNOSTIC APPLICATION IN PATIENTS POTENTIALLY IN NEED OF HDAC INHIBITOR TREATMENT” (4SC AG, priority 2013, published 2016)", "key": {"[1]": {"test_system": "ZFP64", "experiment": "Gene expression in HepG2 cancer cells (in vitro)", "format": "cell-based, human", "details": "standardized to 0 h", "method": "(§1) Hatched columns relate to blood, black columns relate to HepG2 cells, white boxes relate to HT 29 cells. Values are standardized to the value at 0 h.\n(§2) Samples were obtained and gene expressions were determined with the methods as described herein below. The results are shown in below table 3 and FIGS. 2 and 3\n(§3) The above values represent a mean value which was determined on the basis of 2 biological replicates, for each of which 3 technical replicates were prepared. […] The level of gene expression determined in peripheral blood samples can be correlated with a certain level of activity of HDAC in the diseased cells, e.g. by applying an appropriate conversion factor or conversion table, which may be determined for each specific disease, and/or patient group.\n(§4) To determine RNA expression levels of ZFP64 in different cancer cell lines and PBMC, the cell membranes were chemically disrupted with a buffer containing guanidine isothiocycanate, which lyses the cells and supports the binding of RNA to a silica membrane and RNA was extracted via a filter-based spin column.\n(§5) The High-Capacity cDNA Reverse Transcription Kit (Applied Biosystems) was used for reverse transcription of total RNA into single stranded cDNA with the aid of random hexamer primers according to the manufacturer's instructions. Briefly, for the reaction mix total RNA was mixed with random primers in excess, 4 mM dNTP Mix, 2.5 U/reaction, reverse transcriptase and nuclease free water. The reverse transcription took place in a thermal cycler under the following conditions: 25° C. for 10 min, 37° C. for 120 min, 85° C. for 5 min, followed by 4° C. for cooling down the reaction. The reverse transcription can be done in principle as well with other reverse transcriptases, primers and temperature protocols. Whenever possible, 250 ng total RNA were reverse transcribed if not available, lower amounts were used.\n(§6) Custom TaqMan® Arrays (Applied Biosystems) in Format 16 were designed for the gene expression analysis of biomarkers of the present invention and housekeeping genes as outlined in table 4. These arrays allow for qPCR analysis of 8 samples per card. Of course, all reactions can be done as well by conventional qPCR analysis with specific primers."}, "[2]": {"test_system": "MICALL1", "experiment": "Gene expression in HepG2 cancer cells (in vitro)", "format": "cell-based, human", "details": "standardized to 0 h", "method": "as §1, §2, §3, §4, §5, §6"}, "[3]": {"test_system": "DPP3", "experiment": "Gene expression in HepG2 cancer cells (in vitro)", "format": "cell-based, human", "details": "standardized to 0 h", "method": "as §1, §2, §3, §4, §5, §6"}, "[4]": {"test_system": "18S", "experiment": "Gene expression in HepG2 cancer cells (in vitro)", "format": "cell-based, human", "details": "standardized to 0 h", "method": "as §1, §2, §3, §4, §5, §6"}, "[5]": {"test_system": "GAPDH", "experiment": "Gene expression in HepG2 cancer cells (in vitro)", "format": "cell-based, human", "details": "standardized to 0 h", "method": "as §1, §2, §3, §4, §5, §6"}, "[6]": {"test_system": "TBP", "experiment": "Gene expression in HepG2 cancer cells (in vitro)", "format": "cell-based, human", "details": "standardized to 0 h", "method": "as §1, §2, §3, §4, §5, §6"}, "[7]": {"test_system": "HIST2H4A/B", "experiment": "Gene expression in HepG2 cancer cells (in vitro)", "format": "cell-based, human", "details": "standardized to 0 h", "method": "as §1, §2, §3, §4, §5, §6"}, "[8]": {"test_system": "KDELC2", "experiment": "Gene expression in HepG2 cancer cells (in vitro)", "format": "cell-based, human", "details": "standardized to 0 h", "method": "as §1, §2, §3, §4, §5, §6"}, "[9]": {"test_system": "CCDC43", "experiment": "Gene expression in HepG2 cancer cells (in vitro)", "format": "cell-based, human", "details": "standardized to 0 h", "method": "as §1, §2, §3, §4, §5, §6"}, "[10]": {"test_system": "TBP", "experiment": "qPCR relative expression (vs cycle 1, day 1, hour 0) in patients' whole blood", "format": "in vivo, human", "method": "(§7) 2.5 ml whole blood from patients was collected in PAXgene™ tubes (BD Biosciences) that contain chemicals to lyse the erythrocytes, stabilize RNA from degradation by RNases and minimize ex vivo changes in gene expression. The samples were incubated at 20° C. to 25° C. for 2 hours and then frozen at −20° C. until purification of total RNA.\n(§8) Total RNA was isolated from the whole blood samples stabilized in PAXgene™ buffer using a spin column based technique suitable for whole blood samples (like PAXgene™ Blood miRNA Kit or PAXgene™ Blood RNA Kit from Qiagen) according to the manufacturer's instructions. The purification began with a centrifugation step to pellet nucleic acids in the (PAXgene™ Blood RNA) tube. The resuspended pellet was incubated in buffers, optimized for maintenance of RNA stability together with proteinase K to bring about protein digestion. An additional centrifugation through the PAXgene™ Shredder spin column was carried out to homogenize the cell lysate and remove residual cell debris, and the supernatant of the flow-through fraction was transferred to a fresh microcentrifuge tube. Ethanol was added to adjust binding conditions, and the lysate was applied to a PAXgene™ RNA spin column. During a brief centrifugation, RNA was selectively bound to the PAXgene™ silica membrane as contaminants pass through. Remaining contaminants were removed in several efficient wash steps. Between the first and second wash steps, the membrane was treated with DNase I, as described herein below in 1.3 to remove trace amounts of bound DNA. After the wash steps, RNA was eluted in nuclease free water and heat-denatured.\nas §5, §6\n(§9) The reaction mix was transferred into the reaction chambers by centrifuging twice for 1 minute each at 330 g and 4° C. After sealing, the microfluidic cards were run on an AB7900HT instrument (Applied Biosystems). The software SDS 2.4 (Applied Biosystems) was employed for instrument control, data acquisition and raw data analysis. The plates were run in Relative Quantification (ΔΔCt) mode, and the following temperature profile was used:\n(§10) This analysis was carried out for each patient separately. The first sample (cycle 1, day 1, hour 0) was used as the reference sample. The ‘exprs’ value indicates relative expression levels (fold change values) for individual samples.\n(§11) Table 5 contains the median expression level values for treatment day 5 (cycle 1, day 5, hours 0, 2, and 5) at a daily dose of 600 mg or 800 mg Resminostat mesylate salt is given below."}, "[11]": {"test_system": "CCDC43", "experiment": "qPCR relative expression (vs cycle 1, day 1, hour 0) in patients' whole blood", "format": "in vivo, human", "method": "as §7, §8, §5, §6, §9, §10, §11"}, "[12]": {"details": "cycle 1, day 5, hour 0, 600 mg dose"}, "[13]": {"details": "cycle 1, day 5, hour 0, 800 mg dose"}, "[14]": {"details": "cycle 1, day 5, hour 2, 600 mg dose"}, "[15]": {"details": "cycle 1, day 5, hour 2, 800 mg dose"}, "[16]": {"details": "cycle 1, day 5, hour 5, 600 mg dose"}, "[17]": {"details": "cycle 1, day 5, hour 5, 800 mg dose"}}}
{"smiles": "CN(C)Cc1ccc(S(=O)(=O)n2ccc(/C=C/C(=O)NO)c2)cc1", "note": "[resminostat, (E)-3-(1-(4-((dimethylamino)methyl)phenylsulfonyl)-1H-pyrrol-3-yl)-N-hydroxyacrylamide]", "values": [{"measurement": "Expression level, ZFP64", "setting": "[1]; 2 h", "result": 0.46}, {"measurement": "Expression level, ZFP64", "setting": "[1]; 5 h", "result": 0.19}, {"measurement": "Expression level, MICALL1", "setting": "[2]; 2 h", "result": 0.85}, {"measurement": "Expression level, MICALL1", "setting": "[2]; 5 h", "result": 0.50}, {"measurement": "Expression level, DPP3", "setting": "[3]; 2 h", "result": 0.86}, {"measurement": "Expression level, DPP3", "setting": "[3]; 5 h", "result": 0.72}, {"measurement": "Expression level, 18s (housekeeping gene)", "setting": "[4]; 2 h", "result": 0.91}, {"measurement": "Expression level, 18s (housekeeping gene)", "setting": "[4]; 5 h", "result": 0.87}, {"measurement": "Expression level, GAPDH (housekeeping gene)", "setting": "[5]; 2 h", "result": 0.96}, {"measurement": "Expression level, GAPDH (housekeeping gene)", "setting": "[5]; 5 h", "result": 1.03}, {"measurement": "Expression level, TBP (housekeeping gene)", "setting": "[6]; 2 h", "result": 1.15}, {"measurement": "Expression level, TBP (housekeeping gene)", "setting": "[6]; 5 h", "result": 1.12}, {"measurement": "Expression level, HIST2H4A/B", "setting": "[7]; 2 h", "result": 0.88}, {"measurement": "Expression level, HIST2H4A/B", "setting": "[7]; 5 h", "result": 1.17}, {"measurement": "Expression level, KDELC2", "setting": "[8]; 2 h", "result": 0.84}, {"measurement": "Expression level, KDELC2", "setting": "[8]; 5 h", "result": 0.54}, {"measurement": "Expression level, CCDC43", "setting": "[9]; 2 h", "result": 0.70}, {"measurement": "Expression level, CCDC43", "setting": "[9]; 5 h", "result": 0.46}, {"measurement": "Median expression level, TBP", "setting": "[10]; [12]", "result": 0.991}, {"measurement": "Median expression level, TBP", "setting": "[10]; [13]", "result": 1.305}, {"measurement": "Median expression level, TBP", "setting": "[10]; [14]", "result": 0.994}, {"measurement": "Median expression level, TBP", "setting": "[10]; [15]", "result": 1.071}, {"measurement": "Median expression level, TBP", "setting": "[10]; [16]", "result": 1.052}, {"measurement": "Median expression level, TBP", "setting": "[10]; [17]", "result": 1.286}, {"measurement": "Median expression level, CCDC43", "setting": "[11]; [12]", "result": 0.917}, {"measurement": "Median expression level, CCDC43", "setting": "[11]; [13]", "result": 1.391}, {"measurement": "Median expression level, CCDC43", "setting": "[11]; [14]", "result": 0.318}, {"measurement": "Median expression level, CCDC43", "setting": "[11]; [15]", "result": 0.329}, {"measurement": "Median expression level, CCDC43", "setting": "[11]; [16]", "result": 0.378}, {"measurement": "Median expression level, CCDC43", "setting": "[11]; [17]", "result": 0.319}]}
